Test [1] has as its target T1, PEPT2 (Homo sapiens, UniProt Q16348).
T1 construct: expressed in transfected cells; host or cells: transgenic yeast cells
T1 sequence (Q16348 1-729): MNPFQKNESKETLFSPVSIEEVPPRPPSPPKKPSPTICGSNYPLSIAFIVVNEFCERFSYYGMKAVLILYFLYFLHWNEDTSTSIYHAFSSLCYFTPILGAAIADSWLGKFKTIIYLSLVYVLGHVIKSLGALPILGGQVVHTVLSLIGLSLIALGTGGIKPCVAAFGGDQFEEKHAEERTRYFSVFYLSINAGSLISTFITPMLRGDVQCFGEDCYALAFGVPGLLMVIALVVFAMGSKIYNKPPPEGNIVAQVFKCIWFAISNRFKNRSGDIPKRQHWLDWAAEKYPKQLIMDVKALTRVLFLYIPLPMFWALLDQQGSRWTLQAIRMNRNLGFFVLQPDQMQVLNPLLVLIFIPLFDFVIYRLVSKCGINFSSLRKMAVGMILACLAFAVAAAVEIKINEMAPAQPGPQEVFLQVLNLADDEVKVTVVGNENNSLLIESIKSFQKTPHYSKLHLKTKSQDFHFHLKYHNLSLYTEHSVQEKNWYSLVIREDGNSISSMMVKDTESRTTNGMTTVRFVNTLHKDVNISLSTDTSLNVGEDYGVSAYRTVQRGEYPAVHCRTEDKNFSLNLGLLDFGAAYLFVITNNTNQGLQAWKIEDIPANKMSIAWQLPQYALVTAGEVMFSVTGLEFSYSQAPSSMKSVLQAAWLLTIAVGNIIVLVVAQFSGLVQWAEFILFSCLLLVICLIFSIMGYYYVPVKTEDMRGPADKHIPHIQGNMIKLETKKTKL
Nature of the test: Electrophysiological analysis of transport currents in Xenopus oocytes expressing PEPT2. It counts as cell-based, mammalian. Conditions: transport current in Xenopus oocytes relative to 5 mM Gly-Gln. From the text:
(§1) For the analysis o the interaction of the inhibitors of prolyl-specific proteases with the mammalian peptide transporters two assay systems were used. First, all test compounds were submitted to the competition assay with transgenic yeast cells to determine the dose-dependent displacement (EC50 values) of the radiolabeled tracer dipepitde from the substrate binding site. […] As the level of functional expression varies in oocytes, each test compound was compared in the same oocyte with the current elicited by 5 mM of the dipeptide glycyl-L-glutamine (Gly-Gln). Currents of test compounds are therefore given relative to that by Gly-Gln as %I Gly-Gin, expressed as residual uptake in table 10.

Test [2] addresses T2, purified porcine DP IV (Sus scrofa, UniProt P22411). Put plainly: Determination of IC50-values, Gly-Pro-pNA cleavage by DP IV. It counts as biochemical. As to the method:
(§2) 100 μl inhibitor stock solution were mixed with 100 μl buffer (HEPES pH 7.6) and 50 μl substrate (Gly-Pro-pNA, final concentration 0.4 mM) and preincubated at 30° C. Reaction was started by addition of 20 μl purified porcine DP IV. Formation of the product pNA was measured at 405 nm over 10 min using the HTS 7000 Plus plate reader (Perkin Elmer) and slopes were calculated. The final inhibitor concentrations ranged between 1 mM and 30 nM.
For calculation of IC50-values GraFit 4.0.13 (Erithacus Software) was used.

Test [3] concerns the target T3, PEPT1 (Homo sapiens, UniProt P46059).
T3 construct: expressed in transfected cells; host or cells: transgenic yeast cells
T3 sequence (P46059 1-708): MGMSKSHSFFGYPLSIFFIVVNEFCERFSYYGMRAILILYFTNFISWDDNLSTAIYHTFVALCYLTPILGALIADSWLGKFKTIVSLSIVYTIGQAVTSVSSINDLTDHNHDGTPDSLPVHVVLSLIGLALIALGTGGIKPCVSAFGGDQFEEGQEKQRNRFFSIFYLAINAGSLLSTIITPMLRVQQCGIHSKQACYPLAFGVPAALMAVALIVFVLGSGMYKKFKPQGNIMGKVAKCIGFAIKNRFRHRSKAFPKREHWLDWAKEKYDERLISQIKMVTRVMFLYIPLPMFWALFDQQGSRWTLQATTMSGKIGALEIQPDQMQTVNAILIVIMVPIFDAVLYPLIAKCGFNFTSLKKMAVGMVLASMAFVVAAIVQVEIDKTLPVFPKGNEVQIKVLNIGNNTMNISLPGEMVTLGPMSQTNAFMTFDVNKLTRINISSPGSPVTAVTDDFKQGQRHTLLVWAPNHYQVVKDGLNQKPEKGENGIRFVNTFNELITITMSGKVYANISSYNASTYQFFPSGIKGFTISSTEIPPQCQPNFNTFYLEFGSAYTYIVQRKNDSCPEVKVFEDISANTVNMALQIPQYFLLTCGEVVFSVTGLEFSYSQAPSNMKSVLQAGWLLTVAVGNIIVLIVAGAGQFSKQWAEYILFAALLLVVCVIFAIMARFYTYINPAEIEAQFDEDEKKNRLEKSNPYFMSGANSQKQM
Nature of the test: Competition assay with transgenic yeast cells, displacement of radiolabeled tracer dipeptide, PEPT1. It counts as binding, mammalian.
Source text: as §1

Test [4] addresses T2, purified porcine DP IV. Nature of the test: Determination of Ki-values, Gly-Pro-pNA cleavage by DP IV. Type of test: biochemical. As to conditions: Gly-Pro-pNA 0.05-0.4 mM. As to the method:
as §2
Calculations were performed using the GraFit Software.

For test [5], the target named is T3, PEPT1. Put plainly: Electrophysiological analysis of transport currents in Xenopus oocytes expressing PEPT1. Type of test: cell-based, mammalian. Conditions: transport current in Xenopus oocytes relative to 5 mM Gly-Gln.
Source text: as §1

The target of test [6] is T1, PEPT2. Put plainly: Competition assay with transgenic yeast cells, displacement of radiolabeled tracer dipeptide, PEPT2. Type of test: binding, mammalian.
Source text: as §1

In test [7] the target is T4, plasma DP IV (Rattus norvegicus, UniProt P14740).
T4 construct: The assay mixture consisted of 80 μl reagent and 20 μl plasma; from tissue; host or cells: plasma of Wistar rats
Nature of the test: Plasma DP IV activity after intravasal and oral administration in Wistar rats. It counts as in vivo. As for the experimental part:
Rats with intact catheter function were given the test substances intravasal (intraarterial) or oral, respectively, in random order (N=3 Wistar rats in each group). As positive control, […]. isoleucine thiazolidine*fumarate were administered intravasal.
After overnight fasting, 100 μl samples of heparinized arterial blood were collected at −30, −5, and 0 min into ice-cooled Eppendorf tubes (see below). The test substances were dissolved freshly in 1.0 ml saline (0.154 mol/l) and were given at 0 min either oral via a feeding tube ([…], 75 mm; Fine Science Tools, Heidelberg, Germany) or intravasal. For the intravasal route, the catheter was immediately flushed with 30 μl saline and an additional 1 ml of saline was given orally via the feeding tube.
Arterial blood samples were taken thereafter at 5, 10 (only in a limited number of experiments), 20, 40, 60 and 120 min from the carotid catheter of the conscious unrestrained rats and were always given into ice cooled Eppendorf tubes (Eppendorf-Netheler-Hinz, Hamburg, Germany) filled with 10 μl 1 M citrate buffer pH 3.0 for prevention of further hydrolysis of tripeptides by plasma DP IV activity. Eppendorf tubes were centrifuged immediately (12000 rpm for 2 min, Hettich Zentrifuge EBA 12, Tuttlingen; Germany): The plasma fractions were store on ice until analysis or were deeply frozen at −20 ° C. until analysis.
Plasma DP IV activity: The assay mixture consisted of 80 μl reagent and 20 μl plasma. Kinetic measurements of the formation of the yellow product 4-nitroaniline were performed at 390 nm for 1 min at 30° C. after 2 min pre-incubation at the same temperature. The activity was expressed as arbitrary units [AU] and DP IV activity [mU/ml].
The absolute values of plasma DP IV activity, the relative change of plasma DP IV activity and the time and extent of maximal inhibition were calculated. Data presentation included the presentation of area under the curve (AUC), which was used for evaluation of extent of inhibition of plasma DP IV activity during the two hours of observation. AUC was calculated using the trapezoidal rule.
To compare relative changes of parameters under the conditions of different initial values of DP IV activity an uniform standardised mean (values) was set up at the beginning of the test (see Figures and Tables).
Statistical evaluations were performed with Microsoft Excel® 97. All variables are presented as mean and standard deviation (SD). Treatment groups were compared by Student's t-test, within-group changes by paired t-test. Two-tailed values of p<0.05 were considered significant.

[8] abbreviates: Gly-Pro-pNA 0.4 mM, HEPES pH 7.6, 30° C., read-out: IC50.
Setting [9] is: displacement of radiolabeled tracer dipeptide, transgenic yeast cells, read-out: PEPT1 EC50.
[10] abbreviates: displacement of radiolabeled tracer dipeptide, transgenic yeast cells, read-out: PEPT2 EC50.

The text below walks through data of US20030135023A1, “Peptide structures useful for competitive modulation of dipeptidyl peptidase IV catalysis” (priority 2001, published 2003).

Where two headings read alike, the source gives them in different places. Square brackets hold non-standard residues; d marks the D form. Peptide text beside a SMILES is read from it. pY = N[C@@H](Cc1ccc(OP(=O)(O)O)cc1)C(=O)O; pS = N[C@@H](COP(=O)(O)O)C(=O)O; Cha = N[C@@H](CC1CCCCC1)C(=O)O; Tle = CC(C)(C)[C@H](N)C(=O)O

T2 sequence (P22411 whole entry): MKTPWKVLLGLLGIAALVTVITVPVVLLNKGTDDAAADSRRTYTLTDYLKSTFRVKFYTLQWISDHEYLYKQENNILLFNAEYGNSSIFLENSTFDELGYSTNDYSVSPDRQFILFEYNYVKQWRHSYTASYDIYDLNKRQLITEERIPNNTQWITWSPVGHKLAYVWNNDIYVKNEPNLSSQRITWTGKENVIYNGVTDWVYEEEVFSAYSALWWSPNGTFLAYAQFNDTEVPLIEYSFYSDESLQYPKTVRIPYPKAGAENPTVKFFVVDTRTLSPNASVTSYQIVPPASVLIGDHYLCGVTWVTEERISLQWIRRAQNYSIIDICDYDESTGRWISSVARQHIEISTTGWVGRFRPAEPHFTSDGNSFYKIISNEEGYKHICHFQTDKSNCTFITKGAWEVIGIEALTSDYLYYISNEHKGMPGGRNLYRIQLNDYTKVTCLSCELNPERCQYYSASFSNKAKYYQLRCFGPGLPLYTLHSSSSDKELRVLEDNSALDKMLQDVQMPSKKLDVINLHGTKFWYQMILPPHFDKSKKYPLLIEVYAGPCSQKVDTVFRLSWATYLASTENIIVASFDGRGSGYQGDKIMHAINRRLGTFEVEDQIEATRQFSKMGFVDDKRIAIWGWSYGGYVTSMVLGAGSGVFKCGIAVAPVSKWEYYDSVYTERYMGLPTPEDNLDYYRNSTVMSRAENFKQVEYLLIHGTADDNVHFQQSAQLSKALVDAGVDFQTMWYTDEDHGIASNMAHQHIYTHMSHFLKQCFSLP
T4 sequence (P14740 37-767 limits assumed): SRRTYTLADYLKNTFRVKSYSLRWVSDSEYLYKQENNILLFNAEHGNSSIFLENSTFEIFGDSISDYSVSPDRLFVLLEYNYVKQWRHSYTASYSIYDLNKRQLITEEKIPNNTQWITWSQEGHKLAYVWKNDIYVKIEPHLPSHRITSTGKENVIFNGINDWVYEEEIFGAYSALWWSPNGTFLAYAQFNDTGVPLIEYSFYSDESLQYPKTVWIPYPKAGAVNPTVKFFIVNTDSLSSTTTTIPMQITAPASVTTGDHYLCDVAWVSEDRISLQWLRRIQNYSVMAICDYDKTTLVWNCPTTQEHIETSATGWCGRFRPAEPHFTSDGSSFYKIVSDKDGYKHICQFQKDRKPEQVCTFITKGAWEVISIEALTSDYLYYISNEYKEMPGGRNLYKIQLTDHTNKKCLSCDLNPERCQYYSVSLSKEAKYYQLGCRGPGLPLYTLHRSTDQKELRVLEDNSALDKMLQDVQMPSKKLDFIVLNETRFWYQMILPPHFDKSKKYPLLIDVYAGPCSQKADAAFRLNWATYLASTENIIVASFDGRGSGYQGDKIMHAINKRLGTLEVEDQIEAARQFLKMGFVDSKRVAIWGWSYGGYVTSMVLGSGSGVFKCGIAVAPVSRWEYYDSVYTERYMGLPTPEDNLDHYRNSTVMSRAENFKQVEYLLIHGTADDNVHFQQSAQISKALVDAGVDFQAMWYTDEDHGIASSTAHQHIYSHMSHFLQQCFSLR

The IC50 is the concentration that gives 50% inhibition. As a reminder, the EC50 is the concentration giving half of the maximal effect. Broadly, the Ki is a measure of affinity in units of concentration, obtained from inhibition or displacement. Higher therefore signals weaker binding. Take `CC[C@H](C)[C@H](NC(=O)[C@@H]1CCCN1C(=O)[C@@H](N)CC1CCCCC1)C(=O)O` [Cha-Pro-Ile] (H-[Cha]-Pro-Ile-OH; N-terminus and C-terminus assumed): the “PEPT2 Residual uptake % IGly-Gln” value in test [1] was 100 % IGly-Gln. Also, the IC50 in test [2] (setting [8]) was determined as 20.3 µM. Besides, the EC50 in test [3] (setting [9]) was found to be 141 ± 9 µM; in test [6] (setting [10]), 124 ± 1 µM. This compound also had a Ki in test [4] of 5.99 µM. In addition, in test [5], the “PEPT1 Residual uptake % IGly-Gln” value is 90 % IGly-Gln.

For the compound `CC[C@H](C)[C@H](NC(=O)[C@@H]1CCCN1C(=O)[C@@H](N)COP(=O)(O)O)C(=O)O` [Ser(P)-Pro-Ile] (H-[pS]-Pro-Ile-OH; N-terminus and C-terminus assumed), in test [1], the “PEPT2 Residual uptake % IGly-Gln” value is reported as 0 % IGly-Gln. For the same compound, the IC50 in test [2] (setting [8]) was determined as 12000 µM. The values for the concentration giving a half-maximal response (EC50) in test [3] (setting [9]) and in test [6] (setting [10]) were 4100 ± 1300 µM and 4900 ± 1090 µM, respectively. The “PEPT1 Residual uptake % IGly-Gln” value in test [5] came to 0 % IGly-Gln.

The term inhibition denotes how much of the control response was suppressed. `CC[C@H](C)[C@H](NC(=O)[C@@H]1CCCN1C(=O)[C@@H](N)Cc1ccc(OP(=O)(O)O)cc1)C(=O)O` [Tyr(P)-Pro-Ile] (H-[pY]-Pro-Ile-OH; N-terminus and C-terminus assumed): the “PEPT2 Residual uptake % IGly-Gln” value in test [1] stood at 0 % IGly-Gln. Also, the IC50 in test [2] came to 1770 µM. Further, the concentration for a half-maximal effect (EC50) turned out to be 902 ± 58 µM in test [3] and 390 ± 17 µM in test [6]. Further, in test [5], the “PEPT1 Residual uptake % IGly-Gln” value amounted to 0 % IGly-Gln. The “DPIV inhibition at tmax, p.o.” value in test [7] (Wistar rats, p.o., 100 mg/kg) was “no inhibition”. Also, the inhibition at 100 mg/kg in test [7] (rat, iv, read-out: DPIV inhibition at tmax, i.v.) was 37%.

`CC[C@@H](C)[C@@H](NC(=O)[C@@H]1CCCN1C(=O)[C@@H](N)C(C)(C)C)C(=O)O` [t-butyl-Gly-Pro-D-Ile] (H-[Tle]-Pro-[dI]-OH; N-terminus and C-terminus assumed): the “PEPT2 Residual uptake % IGly-Gln” value in test [1] stood at 0 % IGly-Gln. Besides, the EC50 stood at 10600 ± 64 µM in test [3] (setting [9]) and 2300 ± 1120 µM in test [6] (setting [10]). For the same compound, in test [5], the “PEPT1 Residual uptake % IGly-Gln” value is reported as 0 % IGly-Gln.

`CC(C)[C@@H](NC(=O)[C@@H]1CCCN1C(=O)[C@@H](N)C(C)(C)C)C(=O)O` [t-butyl-Gly-Pro-D-Val] (H-[Tle]-Pro-[dV]-OH; N-terminus and C-terminus assumed): the “PEPT2 Residual uptake % IGly-Gln” value in test [1] turned out to be 0 % IGly-Gln. In addition, the 50% inhibitory concentration (IC50) in test [2] (setting [8]) worked out at 112 µM. Also, the concentration giving a half-maximal response (EC50) came out at 11100 ± 2800 µM in test [3] (setting [9]) and 1500 ± 240 µM in test [6] (setting [10]). This compound yielded a Ki in test [4] of 26.5 µM. For the same compound, the “PEPT1 Residual uptake % IGly-Gln” value in test [5] came to 0 % IGly-Gln.
